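Results reflect a 48-hour exposure of cells in 96-well plates to compound at five concentrations. GI50 marks 50% less growth. TGI is the concentration that stops growth completely.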
Legend:
Assay in all cases: inhibition of tumour cell growth, NCI panel, 48 h
[1] = tested on: SK-MEL-2 melanoma
[2] = tested on: COLO 205 colon
[3] = tested on: SF-539 CNS
[4] = tested on: OVCAR-3 ovarian
[5] = tested on: SNB-75 CNS
[6] = tested on: MCF7 breast
[7] = tested on: ACHN renal
[8] = tested on: SR leukemia
[9] = tested on: RXF 393 renal
[10] = tested on: HCT-116 colon
[11] = tested on: HOP-62 NSCLC
[12] = tested on: TK-10 renal
[13] = tested on: U251 CNS
[14] = tested on: SK-MEL-5 melanoma
[15] = tested on: SK-MEL-28 melanoma
[16] = tested on: HOP-92 NSCLC
[17] = tested on: NCI/ADR-RES ovarian
[18] = tested on: MALME-3M melanoma
[19] = tested on: LOX IMVI melanoma
[20] = tested on: EKVX NSCLC
[21] = tested on: BT-549 breast
[22] = tested on: NCI-H226 lung
[23] = tested on: SK-OV-3 ovarian
[24] = tested on: UACC-62 melanoma
[25] = tested on: CCRF-CEM leukemia
[26] = tested on: T-47D breast
[27] = tested on: MDA-MB-435
[28] = tested on: NCI-H460 lung
[29] = tested on: HS 578T breast
[30] = tested on: SN12C renal
[31] = tested on: CAKI-1 renal
[32] = tested on: OVCAR-4 ovarian
[33] = tested on: DU-145 prostate
[34] = tested on: MDA-MB-231 breast
[35] = tested on: A549 NSCLC
[36] = tested on: HCT-15 colon
[37] = tested on: HL-60(TB) leukemia
[38] = tested on: OVCAR-5 ovarian
[39] = tested on: MOLT-4 leukemia
[40] = tested on: UO-31 renal
[41] = tested on: HCC-2998 colon
[42] = tested on: OVCAR-8 ovarian
[43] = tested on: 786-0 renal
[44] = tested on: SW-620 colon
[45] = tested on: PC-3 prostate
[46] = tested on: SF-295 CNS
[47] = tested on: UACC-257 melanoma
[48] = tested on: K-562 leukemia
[49] = tested on: KM12 colon
[50] = tested on: SF-268 CNS
[51] = tested on: IGROV1 ovarian
[52] = tested on: M14 melanoma
[53] = tested on: HT29 colon
[54] = tested on: RPMI-8226 leukemia
[55] = tested on: NCI-H522 lung
[56] = tested on: A498 renal
[57] = tested on: SNB-19 CNS

With `CN(C)CCCOc1c2ccc(Cl)cc2nc2c1oc1ccccc12` the GI50 [1] was 1860 nM, the TGI [1] was 3530 nM and the GI50 [2] was 1080 nM. The TGI [2] was 2520 nM, the GI50 [3] was 1430 nM and the TGI [3] was 2840 nM. For the same compound, the GI50 [4] was 2620 nM, the TGI [4] was 12700 nM and the GI50 [5] was 1480 nM. For the same compound, the TGI [5] was 2850 nM, the GI50 [6] was 1170 nM and the TGI [6] was 5480 nM. For the same compound, the GI50 [7] was 623 nM, the TGI [7] was 12500 nM and the GI50 [8] was 697 nM. For the same compound, the TGI [8] was 6720 nM, the GI50 [9] was 1370 nM and the TGI [9] was 3710 nM. For the same compound, the GI50 [10] was 437 nM, the TGI [10] was 10100 nM and the GI50 [11] was 2090 nM. The TGI [11] was 11600 nM, the GI50 [12] was 2960 nM and the TGI [12] was 7620 nM. For the same compound, the GI50 [13] was 1660 nM, the TGI [13] was 10700 nM and the GI50 [14] was 1780 nM. For the same compound, the TGI [14] was 3210 nM, the GI50 [15] was 1810 nM and the TGI [15] was 3430 nM. The GI50 [16] was 584 nM, the TGI [16] was 3590 nM and the GI50 [17] was 677 nM. For the same compound, the TGI [17] was 6650 nM, the GI50 [18] was 1730 nM and the TGI [18] was 3820 nM. The GI50 [19] was 516 nM, the TGI [19] was 1830 nM and the GI50 [20] was 2640 nM. For the same compound, the TGI [20] was 10300 nM, the GI50 [21] was 2080 nM and the TGI [21] was 7230 nM. It also gave a GI50 [22] of 2140 nM, a TGI [22] of 6770 nM and a GI50 [23] of 2420 nM. The TGI [23] was 9550 nM, the GI50 [24] was 1750 nM and the TGI [24] was 3610 nM. It also gave a GI50 [25] of 2100 nM, a TGI [25] of 11100 nM and a GI50 [26] of 2640 nM. It also gave a TGI [26] of 9870 nM, a GI50 [27] of 1550 nM and a TGI [27] of 3090 nM. It also gave a GI50 [28] of 557 nM, a TGI [28] of 10200 nM and a GI50 [29] of 2150 nM. The TGI [29] was 10100 nM, the GI50 [30] was 1020 nM and the TGI [30] was 11200 nM. It also gave a GI50 [31] of 888 nM, a TGI [31] of 10400 nM and a GI50 [32] of 1750 nM. It also gave a TGI [32] of 7310 nM, a GI50 [33] of 2260 nM and a TGI [33] of 14000 nM. The GI50 [34] was 1800 nM, the TGI [34] was 8490 nM and the GI50 [35] was 1550 nM. The TGI [35] was 11200 nM, the GI50 [36] was 1070 nM and the TGI [36] was 10100 nM. It also gave a GI50 [37] of 1830 nM, a TGI [37] of 5880 nM and a GI50 [38] of 2090 nM. For the same compound, the TGI [38] was 8040 nM, the GI50 [39] was 497 nM and the TGI [39] was 10500 nM. It also gave a GI50 [40] of 553 nM, a TGI [40] of 3370 nM and a GI50 [41] of 1030 nM. It also gave a TGI [41] of 2530 nM, a GI50 [42] of 1370 nM and a TGI [42] of 10900 nM. The GI50 [43] was 1780 nM, the TGI [43] was 11200 nM and the GI50 [44] was 535 nM. It also gave a TGI [44] of 8310 nM, a GI50 [45] of 1710 nM and a TGI [45] of 5410 nM. For the same compound, the GI50 [46] was 2180 nM, the TGI [46] was 10800 nM and the GI50 [47] was 1850 nM. The TGI [47] was 3790 nM, the GI50 [48] was 620 nM and the TGI [48] was 13900 nM. The GI50 [49] was 1870 nM, the TGI [49] was 11900 nM and the GI50 [50] was 1620 nM. For the same compound, the TGI [50] was 11200 nM, the GI50 [51] was 2140 nM and the TGI [51] was 12000 nM. The GI50 [52] was 1500 nM, the TGI [52] was 3130 nM and the GI50 [53] was 713 nM. For the same compound, the TGI [53] was 3000 nM, the GI50 [54] was 2070 nM and the TGI [54] was 7520 nM. It also gave a GI50 [55] of 1570 nM, a TGI [55] of 4610 nM and a GI50 [56] of 3140 nM. The TGI [56] was 8920 nM, the GI50 [57] was 2370 nM and the TGI [57] was 11900 nM.

From PubChem BioAssay (NCI)
